The values that follow come from patent US9169209B2, “Compounds and compositions for the inhibition of NAMPT” (FORMA TM, LLC, priority 2011, dated 2015).

Test [1] has as its target NAMPT (Homo sapiens (Human), UniProt P43490). As to the kind of experiment: Biochemical Inhibition Assay (NAMPT enzymatic reaction, NMN quantified by mass spectrometry). The note with it: recombinant His-tagged NAMPT, 33 nM; 1 μM NAM; read-out: Biochem IC50. The method in brief:
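His-tagged human NAMPT from E. coli was preincubated 15 min at RT with compound in Hepes pH 7.5/MgCl2 buffer. Reaction ran 30 min at RT with 1 μM NAM, 100 μM PRPP and 2.5 mM ATP, then was quenched with formic acid. NMN was measured by RapidFire MS, normalized to L-cystathionine, and IC50 derived from % inhibition.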

The subject of test [2] is A2780 cells. As to the kind of experiment: In-Vitro Cell Proliferation Assay (SRB, 72 hours). Type of test: cell-based. As to conditions: Homo sapiens, A2780, 72 h, A2780 cells, 72 hours, sulforhodamine B; read-out: A2780 IC50. The method in brief:
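Plated cells exposed to serially diluted compound (0.1% DMSO final) for 72 h at 37 °C, 5% CO2. Viability by SRB staining after TCA fixation, absorbance 570 nm, media-only background subtracted; % inhibition relative to DMSO-treated cells, interpolated between bracketing concentrations.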

Each structure is given as a SMILES string.

NAMPT, sequence (P43490 whole entry): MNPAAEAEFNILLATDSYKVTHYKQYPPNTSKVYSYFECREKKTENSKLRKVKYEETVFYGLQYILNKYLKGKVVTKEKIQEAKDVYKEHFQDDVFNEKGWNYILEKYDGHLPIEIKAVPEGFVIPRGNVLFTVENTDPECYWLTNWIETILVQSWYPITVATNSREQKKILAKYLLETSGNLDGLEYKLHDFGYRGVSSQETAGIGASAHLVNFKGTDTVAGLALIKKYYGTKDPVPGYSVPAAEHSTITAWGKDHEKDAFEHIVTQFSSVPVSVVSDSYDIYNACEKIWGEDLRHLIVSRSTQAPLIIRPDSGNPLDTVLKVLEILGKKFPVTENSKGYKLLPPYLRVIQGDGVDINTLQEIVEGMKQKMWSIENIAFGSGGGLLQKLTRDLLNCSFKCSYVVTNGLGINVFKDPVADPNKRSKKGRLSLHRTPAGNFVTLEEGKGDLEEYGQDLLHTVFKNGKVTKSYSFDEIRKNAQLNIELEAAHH

Regarding `CCCOc1cccc(S(=O)(=O)c2ccc(NC(=O)/C=C/c3cccnc3)cc2)c1` [(2E)-N-{4-[(3-propoxybenzene)sulfonyl]phenyl}-3-(pyridin-3-yl)prop-2-enamide], the IC50 came out at 21.6 nM in test [1] and 86.8 nM in test [2].
As for `CCOc1cc(Cl)ccc1S(=O)(=O)c1ccc(NC(=O)/C=C/c2cccnc2)cc1` [(2E)-N-{4-[(4-chloro-2-ethoxybenzene)sulfonyl]phenyl}-3-(pyridin-3-yl)prop-2-enamide], the half-maximal inhibitory concentration (IC50) came out at 4.2 nM in test [1] and 9.68 nM in test [2].
For `COc1cc(Cl)ccc1S(=O)(=O)c1ccc(NC(=O)/C=C/c2cccnc2)cc1` [(2E)-N-{4-[(4-chloro-2-methoxybenzene)sulfonyl]phenyl}-3-(pyridin-3-yl)prop-2-enamide], in that order: 7.3 nM and 109 nM.
For `COc1cc(S(=O)(=O)c2ccc(NC(=O)/C=C/c3cccnc3)cc2)ccc1Cl` [(2E)-N-{4-[(4-chloro-3-methoxybenzene)sulfonyl]phenyl}-3-(pyridin-3-yl)prop-2-enamide], in that order: 26.3 nM and 72 nM.
`O=C(/C=C/c1cccnc1)Nc1ccc(S(=O)(=O)c2ccc(Cl)cc2)cc1` [(2E)-N-{4-[(4-chlorobenzene)sulfonyl]phenyl}-3-(pyridin-3-yl)prop-2-enamide]: the IC50 in test [1] is 43.5 nM; in test [2], 100 to 1000 nM.
Turning to `CCOc1ccc(S(=O)(=O)c2ccc(NC(=O)/C=C/c3cccnc3)cc2)cc1F` [(2E)-N-{4-[(4-ethoxy-3-fluorobenzene)sulfonyl]phenyl}-3-(pyridin-3-yl)prop-2-enamide], the IC50 is 34.1 nM in test [1] and 175 nM in test [2].
As for `CCOc1ccc(S(=O)(=O)c2ccc(NC(=O)/C=C/c3cccnc3)cc2)cc1` [(2E)-N-{4-[(4-ethoxybenzene)sulfonyl]phenyl}-3-(pyridin-3-yl)prop-2-enamide], the results for the half-inhibitory concentration (IC50) in test [1] and in test [2] were 27.4 nM and 100 to 1000 nM, respectively.
As to `Cc1cc(S(=O)(=O)c2ccc(NC(=O)/C=C/c3cccnc3)cc2)ccc1F` [(2E)-N-{4-[(4-fluoro-3-methylbenzene)sulfonyl]phenyl}-3-(pyridin-3-yl)prop-2-enamide], the values for the IC50 in test [1] and in test [2] were 21.9 nM and 100 to 1000 nM, respectively.
Consider `O=C(/C=C/c1cccnc1)Nc1ccc(S(=O)(=O)c2ccc(F)cc2)cc1` [(2E)-N-{4-[(4-fluorobenzene)sulfonyl]phenyl}-3-(pyridin-3-yl)prop-2-enamide], for which the IC50 was 2 nM in test [1] and 158 nM in test [2].
Consider `CS(=O)(=O)c1ccc(S(=O)(=O)c2ccc(NC(=O)/C=C/c3cccnc3)cc2)cc1` [(2E)-N-{4-[(4-methanesulfonylbenzene)sulfonyl]phenyl}-3-(pyridin-3-yl)prop-2-enamide], for which the IC50 in test [1] is 11.4 nM; in test [2] it was 100 to 1000 nM.
`COc1c(C)cc(S(=O)(=O)c2ccc(NC(=O)/C=C/c3cccnc3)cc2)cc1C` [(2E)-N-{4-[(4-methoxy-3,5-dimethylbenzene)sulfonyl]phenyl}-3-(pyridin-3-yl)prop-2-enamide]: the IC50 stood at 6.7 nM in test [1] and 49.5 nM in test [2].
`COc1ccc(S(=O)(=O)c2ccc(NC(=O)/C=C/c3cccnc3)cc2)cc1C` [(2E)-N-{4-[(4-methoxy-3-methylbenzene)sulfonyl]phenyl}-3-(pyridin-3-yl)prop-2-enamide]: the 50% inhibitory concentration (IC50) worked out at 17.1 nM in test [1] and 116 nM in test [2].
For `O=C(/C=C/c1cccnc1)Nc1ccc(S(=O)(=O)c2ccc(-c3ccccc3)cc2)cc1` [(2E)-N-{4-[(4-phenylbenzene)sulfonyl]phenyl}-3-(pyridin-3-yl)prop-2-enamide], in that order: 4.5 nM and 100 to 1000 nM.
Regarding `CCOc1ccc(Cl)cc1S(=O)(=O)c1ccc(NC(=O)/C=C/c2cccnc2)cc1` [(2E)-N-{4-[(5-chloro-2-ethoxybenzene)sulfonyl]phenyl}-3-(pyridin-3-yl)prop-2-enamide], the IC50 in test [1] turned out to be 12.3 nM; in test [2], 5.59 nM.
